Data published in patent publication US12068729B2, “Anti-factor XII/XIIa antibodies and uses thereof” (Regeneron Pharmaceuticals, Inc., priority 2018, dated 2024).

Legend:
[1] = system: Intrinsic and Common pathways of the coagulation cascade; test: Activated Partial Thromboplastin Time (aPTT) in pooled normal human plasma; format: biochemical
Text: This Example describes the inhibitory activity of selected antibodies, as determined by four functional plasma assays: 1) Activated Partial Thromboplastin Time (aPTT), 2) Prothrombin Time (PT), 3) Thrombin Generation Assay (TGA) triggered by ellagic acid and 4) TGA triggered by Tissue Factor. The aPTT test evaluates all clotting factors of the Intrinsic and Common pathways of the coagulation cascade by measuring time for a clot to form after the addition of calcium and ellagic acid, whereas the PT test evaluates all clotting factors of the Extrinsic and Common pathways of the coagulation cascade after the addition of calcium and Tissue Factor. […]
The aPTT was determined on Diagnostica Stago STart4 Hemostasis Analyzer in the following manner: A total of 50 ul of pooled normal human plasma was added to a cuvette at 37° C. […] The measured clot time for the test article concentration was normalized to baseline (no drug) plasma clot time and plotted against log molar concentration of the test article. The results were analyzed using nonlinear regression (4-parameter logistics) with Prism 5 software (GraphPad) to obtain doubling time concentration.

[2] = system: Extrinsic and Common pathways of the coagulation cascade; test: Prothrombin Time (PT) in pooled normal human plasma; format: biochemical
Text: (§1) This Example describes the inhibitory activity of selected antibodies, as determined by four functional plasma assays: 1) Activated Partial Thromboplastin Time (aPTT), 2) Prothrombin Time (PT), 3) Thrombin Generation Assay (TGA) triggered by ellagic acid and 4) TGA triggered by Tissue Factor. The aPTT test evaluates all clotting factors of the Intrinsic and Common pathways of the coagulation cascade by measuring time for a clot to form after the addition of calcium and ellagic acid, whereas the PT test evaluates all clotting factors of the Extrinsic and Common pathways of the coagulation cascade after the addition of calcium and Tissue Factor. The TGA triggered by ellagic acid measures the rate and amount of thrombin generated via the Intrinsic and Common pathways whereas TGA triggered by Tissue Factor measures the rate and amount of thrombin generated via the Extrinsic and Common pathways.
The PT was determined on Diagnostica Stago STart4 Hemostasis Analyzer in the following manner. A total of 50 ul of pooled normal human plasma was added to a cuvette at 37° C. […] The measured clot time for the test article concentration was normalized to baseline (no drug) plasma clot time and plotted against log molar concentration of the test article. The results were analyzed using nonlinear regression (4-parameter logistics) with Prism 5 software (GraphPad) to obtain doubling time concentration.

[3] = system: thrombin generated via the Intrinsic and Common pathways; test: Thrombin Generation Assay (TGA) triggered by ellagic acid; format: biochemical, human; settings: for Concentration required for ↑ lag time by 2× / Concentration required for ↓ endogenous thrombin potential by ½ / Concentration required for ↓ thrombin peak by ½: Intrinsic Pathway Activation with Ellagic Acid
Text: as §1
(§2) The thrombin generation profile was determined in a Thermo Scientific Hemker Thrombinoscope in the following manner: A total of 55 ul of pooled normal human plasma was added to a well of a microplate at 37° C. Then 5 ul of a 2× serially diluted test article (antibody or small molecule inhibitor) in PBS was added to the well of the microplate and allowed to incubate for 30 min. 15 ul of APPT-XL Ellagic Acid (Thermo Scientific) was diluted in MP reagent then added to the well and allowed to incubate for 45 min. Then 15 ul of Fluo Flu Cal substrate (Diagnostica Stago) was added immediately before a continuous 90 min reading of the microplate. The measured real-time thrombin concentration values were plotted against time to yield a thrombogram profile for each concentration of the test article used.

[4] = system: thrombin generated via the Extrinsic and Common pathways; test: Thrombin Generation Assay (TGA) triggered by Tissue Factor; format: biochemical, human
Text: as §1
as §2, with “Tissue Factor PPP Reagent (Diagnostica Stago)” for “APPT-XL Ellagic Acid (Thermo Scientific)”, “was” for “was diluted in MP reagent then”

[5] = conc. of drug required to increase clotting time by 2-fold over baseline
[6] = dose response curves, pooled normal human plasma
[7] = Extrinsic Pathway Activation with Tissue Factor

## COc1ccc(-n2nc(C(N)=O)c3c2C(=O)N(c2ccc(N4CCCCC4=O)cc2)CC3)cc1 [Apixaban, reference compound]
[1]; [5]
  C2xt of activated Partial Thromboplastin Time (aPTT) - Intrinsic Pathway: 7 µM
[1]; [6]
  effect on plasma aPTT (in words): prolonged both aPTT and PT with uM concentrations
[2]; [5]
  C2xt of Prothrombin Time (PT) - Extrinsic Pathway: 3.5 µM
[2]; [6]
  effect on plasma PT (in words): prolonged both aPTT and PT with uM concentrations
[3]
  Concentration required for ↑ lag time by 2×: > 500 nM
  Concentration required for ↓ endogenous thrombin potential by ½: > 500 nM
  Concentration required for ↓ thrombin peak by ½: > 500 nM
[3]; dash cells, dose up to 500 nM
  Concentration required for ↑ lag time by 2×: — (no effect on thrombin generation with a dose up to 500 nM)
  Concentration required for ↓ endogenous thrombin potential by ½: — (no effect on thrombin generation with a dose up to 500 nM)
  Concentration required for ↓ thrombin peak by ½: — (no effect on thrombin generation with a dose up to 500 nM)
[3]; plasma triggered by ellagic acid
  effect on thrombin generation (in words): dose dependent reduction in thrombin generation
[4]; [7]
  Concentration required for ↑ lag time by 2×: 250 nM
  Concentration required for ↓ endogenous thrombin potential by ½: 250 nM
  Concentration required for ↓ thrombin peak by ½: 62.5 nM
[4]; plasma triggered by Tissue Factor
  effect on thrombin generation (in words): dose dependently inhibited thrombin generation
